Assays:
[1] = Nijjar J. S. et al., Rheumatology 2013; cited from earlier work
previously untreated AML = experiment: phase 1b/2 study (NCT02343939) of entospletinib monotherapy followed by combination with daunorubicin and cytarabine; conditions: for complete remission (CR) rate: with induction chemotherapy
Description: Patients with residual disease two weeks after chemotherapy received a second induction cycle identical to the first.

Compound	adverse side effects [1]	patients requiring a second induction (previously untreated AML; 200 mg BID, 3 patients)	complete remission (CR) rate (previously untreated AML; 200 mg BID, 3 patients)	dose limiting toxicity (DLT) (previously untreated AML; 200 mg BID, three patients)	dose limiting toxicity (DLT) (previously untreated AML; 400 mg BID, 3 additional patients (DL 1 expanded))	patients requiring a second induction (previously untreated AML; 400 mg BID, 6 patients)	complete remission (CR) rate (previously untreated AML; 400 mg BID, 6 patients)	adverse event possibly related to entospletinib (previously untreated AML; 400 mg BID, one of three patients, with documented fungal pneumonia, did not meet DLT criteria)	platelet response during the window period (previously untreated AML; another patient with 11q23-rearranged AML, monotherapy window)	toxicities after combination with intensive chemotherapy (previously untreated AML; combination with daunorubicin and cytarabine)	tolerability of combination with intensive chemotherapy (previously untreated AML; doses up to 400 mg BID)	tolerability of single-agent entospletinib (previously untreated AML; monotherapy window period (up to 14 days), AML patients)	clinical activity in AML (previously untreated AML; overall conclusion)	most common non hematologic adverse events (previously untreated AML; overall, inclusive of intensive chemotherapy periods)	response after entospletinib monotherapy window (previously untreated AML; person with 11q23-rearranged AML, 14 day monotherapy, prior to chemotherapy)
COc1cc(Nc2ncc(F)c(Nc3ccc4c(n3)N(COP(=O)(O)O)C(=O)C(C)(C)O4)n2)cc(OC)c1OC [Fostamatinib]	hypertension, neutropenia and transaminitis														
c1cn2cc(-c3ccc4cn[nH]c4c3)nc(Nc3ccc(N4CCOCC4)cc3)c2n1 [entospletinib]		two	100%	no DLT was observed	none of whom experienced DLT	none	100%	grade 3 pneumonitis	significant platelet response	common and typical	well tolerated	well tolerated	significant clinical activity	febrile neutropenia, nausea, and diarrhea	achieved morphologic and cytogenetic CR
